Results published in patent US11696914B1 (priority 2019, dated 2023).
Several values for one entry are separate records, joined by “and”; a condition that tells them apart may be missing. Equal entries are not always repeated. Where two headings read alike, the source gives them in different places.

What was measured:
[1] = mouse, microsomes
[2] = system: Venezuelian equine encephalitis virus; assay: microbe, parasite or virus in culture; assay type: cell-based; details: Venezuelan equine encephalitis virus, Vero 76
SARS-CoV-2 Spike RBD = SARS-CoV-2 Spike RBD (Severe acute respiratory syndrome coronavirus 2, UniProt P0DTC2); assay type: binding
[3] = human, microsomes, 1 h, pH 7.4
Human cytomegalovirus = assay: microbe, parasite or virus in culture; assay type: cell-based; details: Human betaherpesvirus 5
[4] = system: Vesicular Stomatitis Virus (VSV) pseudotyped with EBOV glycoprotein; assay: microbe, parasite or virus in culture; assay type: cell-based, Ebola virus; details: HeLa, read-out: IC50, inhibition of EBOV-VSV pseudovirus entry
[5] = male, Hartley, guinea pig, in vivo
HepG2 2.2.15 = details: human
in vitro [6] = details: human
MERS coronavirus = assay: microbe, parasite or virus in culture; assay type: cell-based; details: Middle East respiratory syndrome-related coronavirus, Vero 76
West Nile virus = assay: microbe, parasite or virus in culture; assay type: cell-based; details: Vero 76
Murine norovirus = assay: microbe, parasite or virus in culture; assay type: cell-based; details: Norwalk virus, RAW267.4
in vitro [7] = details: dog
[8] = system: Ebola virus/H.sapiens-tc/GIN/2014/Makona-005 (EBOV/Mak); assay: microbe, parasite or virus in culture; assay type: cell-based; details: Zaire ebolavirus, HeLa
Rift Valley fever virus = assay: microbe, parasite or virus in culture; assay type: cell-based; details: Vero 76
[9] = guinea pig, microsomes
Hartley guinea pigs = details: both, guinea pig, in vivo
[10] = guinea pig, pH 7.4
Influenza A virus H1N1 = assay: microbe, parasite or virus in culture; assay type: cell-based; details: H1N1, MDCK
Ebola virus = assay: microbe, parasite or virus in culture; assay type: cell-based; details: Zaire ebolavirus, Vero 76
Norovirus = assay: microbe, parasite or virus in culture; assay type: cell-based; details: HG23
SARS-CoV-2 = assay: microbe, parasite or virus in culture; assay type: cell-based
HeLa cells = details: human
Herpes Simplex Virus 1 = assay: microbe, parasite or virus in culture; assay type: cell-based; details: Human alphaherpesvirus 1
[11] = system: Marburg virus (MARV), Musoke strain; assay: organism not typed; assay type: cell-based; details: HeLa; n=6; read-out: IC50 ± SEM versus MARV Musoke strain
[12] = system: Marburg virus/H.sapiens-tc/AGO/2005/Ang-1379v (MARV/Ang); assay: organism not typed; assay type: cell-based; details: HeLa
Zika virus = assay: microbe, parasite or virus in culture; assay type: cell-based; details: Huh-7
Yellow Fever virus = assay: microbe, parasite or virus in culture; assay type: cell-based; details: Vero 76
[13] = system: Marburg virus/H.sapiens-tc/KEN/1980/Mt. Elgon-Musoke (MARV/Mus); assay: organism not typed; assay type: cell-based; details: HeLa
Vero = details: African green monkey
Hepatitis C virus = assay: microbe, parasite or virus in culture; assay type: cell-based; details: Huh-7
[14] = human, microsomes
Vaccinia Virus = assay: microbe, parasite or virus in culture; assay type: cell-based; details: Orthopoxvirus vaccinia
in vitro [15] = details: mouse
Chikungunya virus = assay: microbe, parasite or virus in culture; assay type: cell-based; details: Vero 76
Poliovirus 3 = assay: microbe, parasite or virus in culture; assay type: cell-based; details: Enterovirus C, Vero 76
Nipah virus = assay: microbe, parasite or virus in culture; assay type: cell-based; details: Henipavirus nipahense, read-out: IC50 against Nipah virus
Tacaribe virus = assay: microbe, parasite or virus in culture; assay type: cell-based; details: Mammarenavirus tacaribeense, Vero
[16] = microsomes

What does the source list for `COc1ccc2nc3cc(Cl)ccc3c(Nc3cc(CN4CCCC4)c(O)c(CN4CCCC4)c3)c2n1` [Pyronaridine, 4-[(7-Chloro-2-methoxybenzo[b][1,5]naph-thyridin-10-yl)amino]-2,6-bis(1-pyrrolidinylmethyl)phenol phosphate (1:4)]?
Clint [1]: <7.4; Dextromethorphan: compound, t1/2 normalized to dextromethorphan control [1]: >11.5; t1/2 [1]: >3.1 h; EC50 [2]: 1800 nM; Kd (SARS-CoV-2 Spike RBD; pH5.2): 618 nM; Kd (SARS-CoV-2 Spike RBD; pH 7.4): 647 nM; Relative Peak Area/Abundance HLM [3]: 85.9%; EC50 (Human cytomegalovirus): > 1200 nM; EC90 (Human cytomegalovirus): > 1200 nM; IC50 [4]: 2070 nM; guinea pigs found dead on days 14 and 17 post dose ([5]; ip): 2 of 3; measurable plasma levels through ([5]; ip): 168 h; AUCinf Mean ([5]; ip, 125 mg/kg): 17,430 hr * ng/ml; AUClast Mean ([5]; ip, 125 mg/kg): 16,565 hr * ng/ml; Cmax Mean ([5]; ip, 125 mg/kg): 523 ng/mL; T1/2 ([5]; ip, 125 mg/kg): 72.7 h; measurable plasma levels through ([5]; po): 336 h; AUCinf Mean ([5]; po, 600 mg/kg): 58,783 hr * ng/ml; AUClast Mean ([5]; po, 600 mg/kg): 50,964 hr * ng/ml; Cmax Mean ([5]; po, 600 mg/kg): 1800 ng/mL; T1/2 ([5]; po, 600 mg/kg): 90.5 h; CC50 (HepG2 2.2.15): 3540 nM; CC50 (in vitro [6]): > 100000 nM; EC50 (MERS coronavirus): 3200 nM; EC50 (West Nile virus): > 24000 nM; EC50 (Murine norovirus): > 40000 nM; EC90 (Murine norovirus): > 40000 nM; CC50 (in vitro [7]): 3200 nM; IC50 [8]: 820 ± 190 nM; EC50 (Rift Valley fever virus): 3200 nM; Clint [9]: 21.0; Dextromethorphan: compound, t1/2 normalized to dextromethorphan control [9]: 23.4; t1/2 [9]: 1.1 h; guinea pigs found dead on days 5 and 6 (Hartley guinea pigs): 2 of 6; guinea pigs found dead within 30 mins post injection (Hartley guinea pigs): 4 of 6; guinea pigs having any abnormal clinical observations (Hartley guinea pigs): 1 of 6; maximum tolerated dose (MTD), single dose (Hartley guinea pigs; ip): 125 mg/kg; maximum tolerated dose (MTD), single dose (Hartley guinea pigs; po): > 600 mg/kg; Relative Peak Area/Abundance GPLM [10]: 75.9%; EC50 (Influenza A virus H1N1): 3200 nM; EC50 (Ebola virus): > 1300 nM; EC50 (Norovirus): 3500 nM; EC90 (Norovirus): 9700 nM; IC50 (SARS-CoV-2; Severe acute respiratory syndrome coronavirus 2, A549-ACE2, read-out: IC50 against SARS-CoV-2): < 200 nM; IC50 (SARS-CoV-2; read-out: IC50 against SARS-CoV-2): ~198 nM and 198 nM; CC50 (HeLa cells): 4110 ± 500 nM; EC50 (Herpes Simplex Virus 1): > 6000 nM; EC90 (Herpes Simplex Virus 1): > 6000 nM; IC50 [11]: 1080 ± 197 nM; IC50 [12]: 2720 ± 970 nM; IC50 ([12]; read-out: IC50 range against two strains of Marburg virus): 1010 to 2720 nM; EC50 (Zika virus): 3200 nM; EC50 (Yellow Fever virus): 3200 nM; IC50 [13]: 1010 ± 110 nM; CC50 (Vero): 3200 nM; EC50 (Hepatitis C virus): 780 nM; EC90 (Hepatitis C virus): 1710 nM; Clint [14]: 11.4; Dextromethorphan: compound, t1/2 normalized to dextromethorphan control [14]: 6.2; t1/2 [14]: 2.037 h; EC50 (Vaccinia Virus): > 1200 nM; EC90 (Vaccinia Virus): > 1200 nM; CC50 (in vitro [15]): > 40000 nM; EC50 (Chikungunya virus): 3200 nM; EC50 (Poliovirus 3): 3200 nM; IC50 (Nipah virus): 64 nM; EC50 (Tacaribe virus): > 3200 nM; Clint [16]: 15.5; Dextromethorphan: compound, t1/2 normalized to dextromethorphan control [16]: 16.7; t1/2 ([16]; monkey): 1.5 h
